Measured values reported in patent US20070099915A1, “INHIBITORS OF THE HIV INTEGRASE ENZYME” (PFIZER INC., priority 2005, published 2007).
Read-outs that look alike come from different tables or passages of the source.

Columns and labels:
[1] = system: HIV-1 RF virus in CEM-SS cells; assay: HIV-1 cell protection assay (XTT dye reduction); type: cell-based
Protocol: Six days later, 50 μl of XTT solution (1 mg/ml XTT tetrazolium and 20 nM phenazine methosulfate) were added to the wells and the plates were reincubated for four hours. Viability, as determined by the amount of XTT formazan produced, was quantified spectrophotometrically by absorbance at 450 nm.
Data from CPE assays were expressed as the percent of formazan produced in compound-treated cells compared to formazan produced in wells of uninfected, compound-free cells. […] The 50% cytotoxicity concentration (CC50) was calculated as the concentration of compound that decreased the percentage of formazan produced in uninfected, compound-treated cells to 50% of that produced in uninfected, compound-free cells. The therapeutic index was calculated by dividing the cytotoxicity (CC50) by the antiviral activity (EC50).

[2] = biological target: T1, Full-length wild type HIV-1 integrase (SF1) (Human immunodeficiency virus type 1 group M subtype B, UniProt P04585); assay: Integrase strand-transfer scintillation proximity assay; type: biochemical
T1 construct: made in house; host or cells: E. coli BL21 (DE3)
Description: The annealed product represents preprocessed viral ds-DNA derived from the LTR U5 sequence of the viral genome. A ds-DNA control to test for non-specific interactions was made using a 3′ di-deoxy derivative of oligonucleotide #1 annealed to oligonucleotide #2. The CA overhang at the 5′ end of the non-biotinylated strand of the ds-DNA was created artificially by using a complimentary DNA oligonucleotide shortened by 2 base pairs. This configuration eliminates the requisite 3′ processing step of the integrase enzyme prior to the strand-transfer mechanism.
The annealed product had overhanging 3′ ends of poly(dA). […] The radiolabeled product was purified using a NENSORB cartridge and stored in stabilized aqueous solution (PerkinElmer).
Reagents: Streptavidin-coated polyvinyltoluene (PVT) SPA beads were purchased from Amersham Biosciences (Piscataway, N.J.). Cesium chloride was purchased from Shelton Scientific, Inc. (Shelton, Conn.). White, polystyrene, flat-bottom, non-binding surface, 96-well plates were purchased from Corning. All other buffer components were purchased from Sigma (St. Louis, Mo.) unless otherwise indicated.
Enzyme Construction: Full-length wild type HIV-1 integrase (SF1) sequence (amino acids 1-289) was constructed in a pET24a vector (Novagen, Madison, Wis.).
Enzyme Purification: Full length wild-type HIV Integrase was expressed in E. coli BL21 (DE3) cells and induced with 1 mM isopropyl-1 thio-β-D-galactopyranoside (IPTG) when cells reached an optical density between 0.8-1.0 at 600 nm. Cells were lysed by microfluidation in 50 mM HEPES pH 7.0, 75 mM NaCl, 5 mM DTT, 1 mM 4-(2-Aminoethyl)benzenesulfonylfluoride HCl (AEBSF). Lysate was then centrifuged 20 minutes at 11 k rpm in GSA rotor in Sorvall RC-5B at 4° C. Supernant was discarded and pellet resuspended in 50 mM HEPES pH 7.0, 750 mM NaCl, 5 mM DTT, 1 mM AEBSF and homogenized in a 40 mL Dounce homogenizer for 20 minutes on ice. Homogenate was then centrifuged 20 minutes at 11 k rpm in SS34 rotor in Sorvall RC-5B at 4° C. Supernant was discarded and pellet resuspended in 50 mM HEPES pH 7.0, 750 mM NaCl, 25 mM CHAPS, 5 mM DTT, 1 mM AEBSF. Preparation was then centrifuged 20 minutes at 11 k rpm in SS34 rotor in Sorvall RC-5B at 4° C.
Supernant was then diluted 1:1 with 50 mM HEPES pH 7.0, 25 mM CHAPS, 1 mM DTT, 1 mM AEBSF and loaded onto a Q-Sepharose column pre-equilibrated with 50 mM HEPES, pH 7.0, 375 mM NaCl, 25 mM CHAPS, 1 mM DTT, 1 mM AEBSF. The flow through peak was collected and NaCl diluted to 0.1 M with 50 mM HEPES pH 7.0, 25 mM CHAPS, 1 mM DTT, 0.5 mM AEBSF and loaded onto a SP-Sepharose column pre-equilibrated with 50 mM HEPES pH 7.0, 100 mM NaCl, 25 mM CHAPS, 1 mM DTT, 0.5 mM AEBSF. After washing the column with the equilibration buffer, a 100 to 400 mM NaCl gradient was run. The eluted integrase was concentrated and run on a S-300 gel diffusion column using 50 mM HEPES pH 7.0, 500 mM NaCl, 25 mM CHAPS, 1 mM DTT, 0.5 mM AEBSF. […] All columns were run in a 4° C. cold room.
Viral DNA Bead Preparation: Streptavidin-coated SPA beads were suspended to 20 mg/mL in 25 mM 3-morpholinopropanesulfonic acid (MOPS) (pH 7.2) and 1.0% NaN3. Biotinylated viral DNA was bound to the hydrated SPA beads in a batch process by combining […] of ds-DNA to 1 mg of suspended SPA beads (10 μL of 50 μM viral DNA to 1 mL of 20 mg/mL SPA beads). The mixture was incubated at 22° C. for a minimum of 20 min. with occasional mixing followed by centrifugation at 2500 rpm for 10 min.

[3] = Human immunodeficiency virus 1, 144 h, RF strain of HIV-1, CEM-SS cells, XTT read-out after six days, read-out: EC50
[4] = strand-transfer SPA, 246 nM integrase, 50 nM host DNA, 37° C., 50 min, read-out: IC50
[5] = Human immunodeficiency virus 1, CEM-SS, 144 h

| SMILES | EC50 [1, 3] | IC50 [2, 4] | EC50 [1, 5] | IC50 [2] |
| --- | --- | --- | --- | --- |
| O=C1c2ncc3c(c(Br)cn3Cc3ccc(F)cc3)c2CCN1O [Example 61, 1-bromo-3-(4-fluorobenzyl)-7-hydroxy-3,7,8,9-tetrahydro-6H-pyrrolo[2,3-c]-1,7-naphthyridin-6-one] | 0.32 nM | 17 nM |  |  |
| O=C1c2ncc3c(c(CN4C[C@@H](F)[C@H](F)C4)cn3Cc3ccc(F)cc3)c2CCN1O [Example 72, 1-{[(3R,4R)-3,4-difluoropyrrolidin-1-yl]methyl}-3-(4-fluorobenzyl)-7-hydroxy-3,7,8,9-tetrahydro-6H-pyrrolo[2,3-c]-1,7-naphthyridin-6-one] | 0.5 nM | 9 nM |  |  |
| CC(=O)C1CCN(Cc2cn(Cc3ccc(F)cc3)c3cnc4c(c23)CCN(O)C4=O)CC1 [Example 99, 1-[(4-acetylpiperidin-1-yl)methyl]-3-(4-fluorobenzyl)-7-hydroxy-3,7,8,9-tetrahydro-6H-pyrrolo[2,3-c]-1,7-naphthyridin-6-one] | 5 nM | 22 nM |  |  |
| O=C1c2ncc3c(c(CN4CCCCCC4)cn3Cc3ccc(F)cc3)c2CCN1O [Example 98, 1-(azepan-1-ylmethyl)-3-(4-fluorobenzyl)-7-hydroxy-3,7,8,9-tetrahydro-6H-pyrrolo[2,3-c]-1,7-naphthyridin-6-one] | 13 nM | 38 nM |  |  |
| O=C1c2ncc3c(c(CN4CCCC4)cn3Cc3ccc(F)cc3)c2CCN1O [Example 23, 3-(4-fluorobenzyl)-7-hydroxy-1-(pyrrolidin-1-ylmethyl)-3,7,8,9-tetrahydro-6H-pyrrolo[2,3-c]-1,7-naphthyridin-6-one] |  |  | 4 nM | 27 nM |
| O=C1c2ncc3c(c(COC4CCOCC4)cn3Cc3ccc(F)cc3)c2CCN1O [Example 30, 3-(4-fluorobenzyl)-7-hydroxy-1-[(tetrahydro-2H-pyran-4-yloxy)methyl]-3,7,8,9-tetrahydro-6H-pyrrolo[2,3-c]-1,7-naphthyridin-6-one] | 5 nM | 42 nM |  |  |
| O=C1c2ncc3c(c(CN4CCCC(F)(F)C4)cn3Cc3ccc(F)cc3)c2CCN1O [Example 39] | 0.279 nM | 10.3 nM |  |  |
| O=C1c2ncc3c(ccn3Cc3ccc(F)cc3)c2C=CCN1O [Example 10, 3-(4-fluorobenzyl)-7-hydroxy-7,8-dihydropyrrolo[3′,2′:4,5]pyrido[2,3-c]azepin-6(3H)-one] | 0.59 nM |  |  | 17 nM |
| CN(CCCc1cn(Cc2ccc(F)cc2)c2cnc3c(c12)CCN(O)C3=O)CC1CCOCC1 [Example 105, 3-(4-fluorobenzyl)-7-hydroxy-1-{3-[methyl(tetrahydro-2H-pyran-4-ylmethyl)amino]propyl}-3,7,8,9-tetrahydro-6H-pyrrolo[2,3-c]-1,7-naphthyridin-6-one] | 16 nM | 24 nM |  |  |
| CN(CCc1cn(Cc2ccc(F)cc2)c2cnc3c(c12)CCN(O)C3=O)C1CCOCC1 [Example 108, 3-(4-fluorobenzyl)-7-hydroxy-1-(2-(methyl(tetrahydro-2H-pyran-4-yl)amino)ethyl)-8,9-dihydro-3H-pyrrolo[2,3-c][1,7]naphthyridin-6(7H)-one] | 16 nM | 21 nM |  |  |
| CC(=O)c1cn(Cc2ccc(F)cc2)c2cnc3c(c12)CCN(O)C3=O [Example 68, 1-acetyl-3-(4-fluorobenzyl)-7-hydroxy-3,7,8,9-tetrahydro-6H-pyrrolo[2,3-c]-1,7-naphthyridin-6-one-methane (1:1)] |  | 12 nM | 3 nM |  |
| COCCOCCCc1cn(Cc2ccc(F)cc2)c2cnc3c(c12)CCN(O)C3=O [Example 106, 3-(4-fluorobenzyl)-7-hydroxy-1-[3-(2-methoxyethoxy)propyl]-3,7,8,9-tetrahydro-6H-pyrrolo[2,3-c]-1,7-naphthyridin-6-one] | 0.95 nM | 14 nM |  |  |
| COC[C@H]1CCCN1C(=O)c1cn(Cc2ccc(F)cc2)c2cnc3c(c12)CCN(O)C3=O [Example 19, 3-(4-fluorobenzyl)-7-hydroxy-1-{[(2R)-2-(methoxymethyl)pyrrolidin-1-yl]carbonyl}-3,7,8,9-tetrahydro-6H-pyrrolo[2,3-c]-1,7-naphthyridin-6-one] |  | 36 nM | 4.5 nM |  |
| O=C1c2ncc3c(c(CCCOCCN4CCOCC4)cn3Cc3ccc(F)cc3)c2CCN1O [Example 128, 3-(4-fluorobenzyl)-7-hydroxy-1-[3-(2-morpholin-4-ylethoxy)propyl]-3,7,8,9-tetrahydro-6H-pyrrolo[2,3-c]-1,7-naphthyridin-6-one] | 5 nM | 21 nM |  |  |
| O=C1c2ncc3c(c(C(=O)N4CCCC4)cn3Cc3ccc(F)cc3)c2CCN1O [Example 14, 3-(4-fluorobenzyl)-7-hydroxy-1-(pyrrolidin-1-ylcarbonyl)-3,7,8,9-tetrahydro-6H-pyrrolo[2,3-c]-1,7-naphthyridin-6-one] |  | 16 nM | 7 nM |  |
| O=C1c2ncc3c(c(CCNCC(F)(F)F)cn3Cc3ccc(F)cc3)c2CCN1O [Example 115, 3-(4-fluorobenzyl)-7-hydroxy-1-{2-[(2,2,2-trifluoroethyl)amino]ethyl}-3,7,8,9-tetrahydro-6H-pyrrolo[2,3-c]-1,7-naphthyridin-6-one] | 2 nM | 14 nM |  |  |
| COCCCc1cn(Cc2ccc(F)cc2)c2cnc3c(c12)CCN(O)C3=O [Example 94, 3-(4-fluorobenzyl)-7-hydroxy-1-(3-methoxypropyl)-3,7,8,9-tetrahydro-6H-pyrrolo[2,3-c]-1,7-naphthyridin-6-one] | 0.25 nM | 12 nM |  |  |
| O=C1c2ncc3c(c(CCN4CCOCC4)cn3Cc3ccc(F)cc3)c2CCN1O [Example 111, 3-(4-fluorobenzyl)-7-hydroxy-1-(2-morpholinoethyl)-8,9-dihydro-3H-pyrrolo[2,3-c][1,7]naphthyridin-6(7H)-one] | 4 nM | 12 nM |  |  |
| CCCCOCCOCc1cn(Cc2ccc(F)cc2)c2cnc3c(=O)n(O)ccc3c12 [Example 82, 1-[(2-butoxyethoxy)methyl]-3-(4-fluorobenzyl)-7-hydroxy-3,7-dihydro-6H-pyrrolo[2,3-c]-1,7-naphthyridin-6-one] | 0.37 nM | 10 nM |  |  |
| N#Cc1ccccc1Cn1ccc2c3c(ncc21)C(=O)N(O)CC3 [Example 84, 2-[(7-hydroxy-6-oxo-6,7,8,9-tetrahydro-3H-pyrrolo[2,3-c]-1,7-naphthyridin-3-yl)methyl]benzonitrile] | 32 nM | 125 nM |  |  |
| COc1cccc(CCOCc2cn(Cc3ccc(F)cc3)c3cnc4c(c23)CCN(O)C4=O)c1 [Example 66] | 1 nM | 13 nM |  |  |
